In patent US20250388592A1 (REMYND N.V., priority 2022, published 2025):
pEC50: −log10 of the molar value.

Tested on: M17_3TAU(P301L) cells
Assay: TAU-induced cytotoxicity (LDH) in the neuroblastoma tauopathy model
Type: cell-based
Settings: Homo sapiens, 168 h, inhibition of TAU-induced toxicity, 7 days retinoic acid differentiation, LDH readout
How it was run: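 Stably transfected BE-M17 cells expressing human TAU-P301L, seeded in serum-free detection medium, then differentiated with 2.5 μM RA (added in equal volume) for 7 days at 37° C/5% CO2 to induce TAU aggregation. Cytotoxicity = supernatant LDH increase over total LDH; EC50 from dose-dependent inhibition curves.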

`Cc1nc(CN2CC3(C2)CN(C(=O)CC2CCC(F)(F)CC2)C3)cs1` [Cpd B102] showed a pEC50 of 7.58.

`Cc1cccnc1CN1CC2(C1)CN(S(=O)(=O)CCc1ccccc1)C2` [Cpd B211, 2-((3-methylpyridin-2-yl)methyl)-6-((phenethyl)sulfonyl)-2,6-diazaspiro[3.3]heptane] was tested, and the pEC50 was 7.02.

`Cc1[nH]cnc1CN1CC2(C1)CN(C(=O)CC1CCC(F)(F)CC1)C2` [Cpd B124] showed a pEC50 of 7.26.

Compound `COc1cccc(CN2CC3(C2)CN(C(=O)CCC2CCCC2)C3)c1` [Cpd B071] has a pEC50 of 8.53.

`O=C(CC1CCC(F)(F)CC1)N1CC2(CN(Cc3ccc(F)cc3Cl)C2)C1` [Cpd B107] gave a pEC50 of over 9.72.

`Cc1cccnc1CN1CC2(C1)CN(C(=O)c1cc3ccccc3o1)C2` [Cpd B412] gave a pEC50 of 5.55.

With `Cc1nc(CN2CC3(C2)CN(S(=O)(=O)Cc2cccc(C(F)(F)F)c2)C3)cs1` [Cpd B215] the pEC50 was 8.43.

Compound `O=C(Nc1ccc(Cl)cc1)N1CC2(CN(Cc3ccc(F)cc3)C2)C1` [Cpd B187] has a pEC50 of 8.04.

`O=C(Cc1ccc(Cl)cc1)N1CC2(CN(Cc3cccc(Cl)c3)C2)C1` [Cpd B033, 1-(6-(3-chlorobenzyl)-2,6-diazaspiro[3.3]heptan-2-yl)-2-(4-chlorophenyl)ethanone] was tested, and the pEC50 was 8.61.

With `O=C(CC1CCC(F)(F)CC1)N1CC2(CN(Cc3ncccc3F)C2)C1` [Cpd B464] the pEC50 was 7.40.

With `O=S(=O)(Cc1cccc(Cl)c1)N1CC2(CN(Cc3ccc(F)cc3)C2)C1` [Cpd B218] the pEC50 was 7.77.

With `Cc1cc(CN2CC3(C2)CN(C(=O)Cc2ccc(Cl)cc2)C3)no1` [Cpd B041, 2-(4-chlorophenyl)-1-(6-((5-methylisoxazol-3-yl)methyl)-2,6-diazaspiro[3.3]heptan-2-yl)ethanone] the pEC50 was 6.85.

Work on `Cc1nc(CN2CC3(C2)CN(C(=O)NC2CCC(F)(F)CC2)C3)cs1` [Cpd B450] yielded a pEC50 of 6.93.

Compound `Cc1nc(CN2CC3(C2)CN(C(=O)NCC2CCC(F)(F)CC2)C3)cs1` [Cpd B194] has a pEC50 of 6.58.

With `COc1cccc(CN2CC3(C2)CN(C(=O)CC2CCC(F)(F)CC2)C3)c1` [Cpd B074] the pEC50 was 8.44.

`Cc1ccc(CCN2CC3(C2)CN(C(=O)Cc2ccc(Cl)cc2)C3)cc1` [Cpd B047, 2-(4-chlorophenyl)-1-(6-(4-methylphenethyl)-2,6-diazaspiro[3.3]heptan-2-yl)ethanone] was tested, and the pEC50 was 7.87.

`CCn1cc(CN2CC3(C2)CN(C(=O)NCc2ccc(F)cc2)C3)cn1` [Cpd B410] gave a pEC50 of 5.48.

In the case of `O=C(OC1CCC(F)(F)CC1)N1CC2(CN(Cc3ccc(F)cc3Cl)C2)C1` [Cpd B151], the pEC50 was 9.28.

With `CCn1ccc(CN2CC3(C2)CN(C(=O)CC2CCC(F)(F)CC2)C3)n1` [Cpd B118] the pEC50 was 7.56.

Compound `CC(c1ccccc1)N1CC2(CN(C(=O)Cc3ccc(F)cc3)C2)C1` (centres unmarked) [Cpd B016, 2-(4-Fluoro-phenyl)-1-[6-(1-phenyl-ethyl)-2,6-diaza-spiro[3.3]hept-2-yl]-ethanone] has a pEC50 of 8.26.

For `O=C(OC1CCC(F)(F)CC1)N1CC2(CN(Cc3ccccc3OC(F)F)C2)C1` [Cpd B149], the pEC50 was 8.12.

Work on `COc1cccc(CN2CC3(C2)CN(C(=O)OCc2ccc(Cl)cc2)C3)c1` [Cpd B463] yielded a pEC50 of 7.38.

`Cc1cccnc1CN1CC2(C1)CN(C(=O)NC1CC(F)(F)C1)C2` [Cpd B170] was tested, and the pEC50 was 5.46.

With `CC(c1cccc(C(F)(F)F)c1)N1CC2(CN(C(=O)Cc3ccc(Cl)cc3)C2)C1` (centres unmarked) [Cpd B037, 2-(4-chlorophenyl)-1-(6-(1-(3-(trifluoromethyl)phenyl)ethyl)-2,6-diazaspiro[3.3]heptan-2-yl)ethanone] the pEC50 was 8.27.

`COc1cccc(CN2CC3(C2)CN(C(=O)NCc2ccc(F)cc2)C3)c1` [Cpd B181] showed a pEC50 of 8.30.

Work on `Cn1ccc(CN2CC3(C2)CN(C(=O)NCc2ccc(F)cc2)C3)n1` [Cpd B406] yielded a pEC50 of 5.34.

Work on `O=C(Cc1cccnc1)N1CC2(CN(Cc3ccc(F)cc3)C2)C1` [Cpd B409] yielded a pEC50 of 5.43.

For `Cc1nc(CN2CC3(C2)CN(C(=O)OCC24CC(F)(C2)C4)C3)cs1` [Cpd B136], the pEC50 was 6.17.

Work on `Clc1ccc(Cc2nsc(NC3CC4(CC(NCc5ccc(Cl)cc5Cl)C4)C3)n2)cc1` (centres unmarked) [Cpd B307, N-(3-(4-chlorobenzyl)-1,2,4-thiadiazol-5-yl)-N′-(2,4-dichlorobenzyl) spiro[3.3]heptane-2,6-diamine] yielded a pEC50 of 8.89.

`O=C(NC1CCC(F)(F)CC1)N1CC2(CN(Cc3ccc(F)cn3)C2)C1` [Cpd B205] was tested, and the pEC50 was 6.58.

Compound `COC(=O)c1ccc(CN2CC3(C2)CN(C(=O)Cc2ccc(Cl)cc2)C3)cc1` [Cpd B035, methyl 4-((6-(2-(4-chlorophenyl)acetyl)-2,6-diazaspiro[3.3]heptan-2-yl)methyl)benzoate] has a pEC50 of 8.22.

`O=C(Nc1cccc(C(F)(F)F)c1)N1CC2(CN(Cc3ccc(F)cc3)C2)C1` [Cpd B189] was tested, and the pEC50 was 7.97.

`Cc1nc(CN2CC3(C2)CN(C(=O)Cc2ccccc2F)C3)cs1` [Cpd B424] gave a pEC50 of 6.03.

For `O=C(NCC1CCC(F)(F)CC1)N1CC2(CN(Cc3ncccc3F)C2)C1` [Cpd B199], the pEC50 was 7.27.

In the case of `O=C(OCC1CCC(F)(F)CC1)N1CC2(CN(Cc3ncccc3F)C2)C1` [Cpd B162], the pEC50 was 7.29.

Compound `O=C(Cc1ccc(F)cc1)N1CC2(CN(Cc3ccccc3Cl)C2)C1` [Cpd B018, 1-[6-(2-Chloro-benzyl)-2,6-diaza-spiro[3.3]hept-2-yl]-2-(4-fluoro-phenyl)-ethanone] has a pEC50 of 9.01.

`COc1ncccc1CN1CC2(C1)CN(C(=O)NCc1ccc(F)cc1)C2` [Cpd B431] showed a pEC50 of 6.31.

`O=C(NCC1CCC(F)(F)CC1)N1CC2(CN(Cc3ncccc3Cl)C2)C1` [Cpd B196] gave a pEC50 of 7.90.

`O=C(CC1CCC(F)(F)CC1)N1CC2(CN(Cc3ncccc3Cl)C2)C1` [Cpd B114] was tested, and the pEC50 was 7.87.

Work on `COc1ccc(CCNC2CC3(C2)CC(Nc2nc(Cc4ccc(Cl)cc4)ns2)C3)cc1OC` (centres unmarked) [Cpd B335, N-(3-(4-chlorobenzyl)-1,2,4-thiadiazol-5-yl)-N′-(3,4-dimethoxyphenethyl) spiro[3.3]heptane-2,6-diamine] yielded a pEC50 of 8.52.

For `O=C(OC1CCC(F)(F)CC1)N1CC2(CN(Cc3ccc(F)cn3)C2)C1` [Cpd B153], the pEC50 was 7.43.

`O=C(Cc1ccc(Cl)cc1)N1CC2(CN(CCc3ccccc3)C2)C1` [Cpd B052, 2-(4-chlorophenyl)-1-(6-phenethyl-2,6-diazaspiro[3.3]heptan-2-yl)ethanone] showed a pEC50 of 7.80.

For `Cc1cccnc1CN1CC2(C1)CN(C(=O)NCc1ccc(F)cc1)C2` [Cpd B443], the pEC50 was 6.77.

`O=C(Cc1ccc(OC(F)(F)F)cc1)N1CC2(CN(Cc3ccc(F)cc3)C2)C1` [Cpd B090] gave a pEC50 of 8.04.

In the case of `O=C(Cc1ccc(F)cc1)N1CC2(CN(CCc3ccccc3)C2)C1` [Cpd B030, 2-(4-Fluoro-phenyl)-1-(6-phenethyl-2,6-diaza-spiro[3.3]hept-2-yl)-ethanone], the pEC50 was 7.42.

With `COc1cccc(CN2CC3(C2)CN(C(=O)Nc2ccc(Cl)cc2)C3)c1` [Cpd B185] the pEC50 was 7.75.

`COc1cccc(CN2CC3(CN(Cc4ccc(Cl)cc4)C3)C2)c1` [Cpd B225, 2-(4-chlorobenzyl)-6-(3-methoxybenzyl)-2,6-diazaspiro[3.3]heptane] was tested, and the pEC50 was 8.28.

With `O=C(Cc1ccc(Cl)cc1)N1CC2(CN(CCc3ccc(F)cc3)C2)C1` [Cpd B048, 2-(4-chlorophenyl)-1-(6-(4-fluorophenethyl)-2,6-diazaspiro[3.3]heptan-2-yl)ethanone] the pEC50 was 8.05.

With `O=C(OCC1CCC(F)(F)CC1)N1CC2(CN(Cc3ccc(F)cc3C(F)(F)F)C2)C1` [Cpd B166] the pEC50 was 9.13.

`COc1cccc(CN2CC3(C2)CN(C(=O)CC2CCCCC2)C3)c1` [Cpd B073] was tested, and the pEC50 was 8.30.

`Cc1nc(CN2CC3(C2)CN(C(=O)NCc2ccc(F)cc2)C3)cs1` [Cpd B418] gave a pEC50 of 5.88.

Compound `COc1cccc(CN2CC3(C2)CN(C(=O)Cc2ccc(F)cc2)C3)c1` [Cpd B008, 2-(4-Fluoro-phenyl)-1-[6-(3-methoxy-benzyl)-2,6-diaza-spiro[3.3]hept-2-yl]-ethanone] has a pEC50 of 8.40.

`CC(=O)Nc1ccc(CNC2CC3(C2)CC(Nc2nc(Cc4ccc(Cl)cc4)ns2)C3)cc1` (centres unmarked) [Cpd B326, N-(4-((6-(3-(4-chlorobenzyl)-1,2,4-thiadiazol-5-ylamino)spiro[3.3]heptan-2-ylamino)methyl)phenyl) acetamide] gave a pEC50 of 6.84.

Compound `O=C(Cc1ccc(Cl)cc1)N1CC2(CN(CCC3CCCCC3)C2)C1` [Cpd B057, 2-(4-chlorophenyl)-1-(6-(2-cyclohexylethyl)-2,6-diazaspiro[3.3]heptan-2-yl)ethanone] has a pEC50 of 8.80.

With `COc1cccc(CN2CC3(C2)CN(C(=O)Oc2ccc(F)cc2)C3)c1` [Cpd B140, 4-fluorophenyl 6-(3-methoxybenzyl)-2,6-diazaspiro[3.3]heptane-2-carboxylate] the pEC50 was 8.82.

For `COC(=O)c1ccc(CN2CC3(C2)CN(C(=O)Cc2ccc(F)cc2)C3)cc1` [Cpd B014, 4-{6-[2-(4-Fluoro-phenyl)-acetyl]-2,6-diaza-spiro[3.3]hept-2-ylmethyl}-benzoic acid methyl ester], the pEC50 was 9.04.

For `COc1cc(CN2CC3(C2)CN(C(=O)Cc2ccc(Cl)cc2)C3)ccn1` [Cpd B005, 2-(4-chlorophenyl)-1-(6-((2-methoxypyridin-4-yl)methyl)-2,6-diazaspiro[3.3]heptan-2-yl)ethanone], the pEC50 was 6.79.

`Cc1nc(CN2CC3(C2)CN(C(=O)Nc2ccc(Cl)cc2)C3)cs1` [Cpd B452] was tested, and the pEC50 was 7.02.

`Cc1c(CN2CC3(C2)CN(C(=O)CC2CCC(F)(F)CC2)C3)cnn1C` [Cpd B461] showed a pEC50 of 7.25.

`O=C(CC1CCC(F)(F)CC1)N1CC2(CN(Cc3ccc(F)cc3F)C2)C1` [Cpd B105] showed a pEC50 of 8.59.

Work on `O=C(OCC1CCC(F)(F)CC1)N1CC2(CN(Cc3ccccc3C(F)(F)F)C2)C1` [Cpd B165] yielded a pEC50 of 8.60.

Compound `COC(=O)c1ccc(CC(=O)N2CC3(CN(Cc4ccc(F)cc4)C3)C2)cc1` [Cpd B428] has a pEC50 of 6.11.

`Cc1ccccc1CC(=O)N1CC2(CN(Cc3ccccc3C)C2)C1` [Cpd B434] was tested, and the pEC50 was 6.40.

For `Clc1ccc(CNC2CC3(C2)CC(Nc2nc(Cc4ccc(Cl)cc4)ns2)C3)cc1` (centres unmarked) [Cpd B303, N-(4-chlorobenzyl)-N′-(3-(4-chlorobenzyl)-1,2,4-thiadiazol-5-yl) spiro[3.3]heptane-2,6-diamine], the pEC50 was 7.93.

In the case of `Cc1cnc(CN2CC3(C2)CN(C(=O)CC2CCC(F)(F)CC2)C3)s1` [Cpd B116], the pEC50 was 7.14.
